Results as given in US4542021A, “Antitumor compositions for non-injection administration” (Yamasa Shoyu Kabushiki Kaisha, priority 1978, dated 1985).

Legend:
B16 melanoma = test: Effectiveness against B16 melanoma (oral, 3 times a week); type: in vivo, BDF1 mice; set-up: Mean survival time (MST ± SE): unit not given here
Description: The B16 melanoma cells (1×10^6 cells) were implanted to the right side-abdominal hypoderms of BDF1 mice (male, 18 to 22 g). From the 13th day after the implantation to death the compounds to be tested were administered orally 3 times a week. The compounds to be tested were dissolved in a phosphate-buffered salt solution (PBS) containing 0.5% carboxymethyl-cellulose to a suitable concentration, and given to the mice at a dose rate of 0.1 ml per 10 g of each mouse's body weight. The increases in life span (%ILS) were calculated in accordance with the same formula as described in Test Example 1.

L1210 leukemia = test: Therapeutic test on L1210 leukemia (oral, once a day); type: in vivo, BDF1 mice; conditions: Mus musculus, oral, read-out: % ILS (increase in life span); for ILS at 100 mg/kg/day / ILS at 200 mg/kg/day / ILS at 400 mg/kg/day: L1210, 720 h, > means some mice survived the test period (30 days); for ILS at 50 mg/kg/day / ILS at 12.5 mg/kg/day / ILS at 25 mg/kg/day / ILS at 6.25 mg/kg/day: L1210
Description: The L1210 leukemic cell suspension (1×10^5 cells/0.2 ml) was implanted intraperitoneally in BDF1 mice (males, 18 to 22 g, females, 16 to 20 g) (7 mice per group). From 24 hours after the implantation to the 5th day thereafter, the predetermined doses of the compounds to be tested were orally administered to the mice consecutively once a day. The compounds to be tested were dissolved or suspended in a phosphate-bufferedsalt solution (PBS) containing 0.5% carboxymethylcellulose, and given at a dose rate of 0.1 ml per 10 g of each mouse's body weight. To a control group, only the same solvent as used for the dissolution of the compounds to be tested was administered in the same way. The mean survival times (MST) for each group were calculated, and the corresponding increase in life span (%ILS) was obtained in accordance with the following formula, the results of which are shown in Table 1. [formula]

[1] = Acute toxicity test, oral (Test Example 5); set-up: species or system ICR-JCL mice; conditions: mouse, in vivo, neutralized ester, male mice, 14th day
Description: An ara-CMP ester was neutralized and dissolved in saline containing 0.5% of carboxymethylcellulose, and the resulting solution was orally administered to ICR-JCL mice (males, 24 to 26 g) in a dose of 0.2 ml per 10 g of each mouse's body weight.

[2] = Acute toxicity test, intraperitoneal (Test Example 4); set-up: species or system ICR-JCL mice; conditions: mouse, in vivo; ip, male mice, 7th day; reliability limit 95% in parentheses
Description: The C18-ara-CMP ester dissolved in saline was administered intraperitoneally to ICR-JCL mice (males, 24 to 26 g) at a dose rate of 0.2 ml per 10 g of each mouse's body weight. The LD50 value obtained on the 7th day was;

L1210 leukemic cells [3] = test: Experimental tumor proliferation model in the lymph nodes, single administration on sixth day; type: in vivo, BDF1 mice; conditions: po, once on sixth day
Description: (§1) L1210 leukemic cells (1×10^6 cells/0.05 ml) were implanted to the right inner-thigh hypoderms of BDF1 mice (males, 18 to 22 g). From one day after the transplantation, the compounds to be tested were administered intraperitoneally or orally to the mice once a day consecutively for 6 days. The compounds being tested were dissolved in a phosphate-buffered salt solution (PBS) containing 0.5% carboxymethylcellulose to a suitable concentration, and administered to the mice at a dose rate of 0.1 ml per 10 g of each mouse's body weight. The increases in life span (%ILS) were calculated similarly as in Test Example 1.
Furthermore, in a similar manner, each of the test compounds was administered only once on the sixth day after implantation.

[4] = Acute toxicity test, oral (Test Example 4); set-up: species or system ICR-JCL mice; conditions: mouse, in vivo, male mice, observed 7 days, reliability limit 95% in parentheses
Description: The C18-ara-CMP ester was dissolved in saline containing 0.5% carboxymethylcellulose, and given orally to ICR-JCL mice (males, 24 to 26 g) at a dose rate of 0.2 ml per 10 g of each mouse's body weight. […] The LD50 value was;

L1210 leukemic cells [5] = test: Experimental tumor proliferation model in the lymph nodes, once a day for 6 days; type: in vivo, BDF1 mice
Description: as §1

[6] = 50 mg/kg, * level of significance at 0.05% or lower

Row | Compound | ILS at 100 mg/kg/day (L1210 leukemia) | ILS at 200 mg/kg/day (L1210 leukemia) | ILS at 400 mg/kg/day (L1210 leukemia) | ILS at 50 mg/kg/day (L1210 leukemia) | ILS at 12.5 mg/kg/day (L1210 leukemia) | ILS at 25 mg/kg/day (L1210 leukemia) | LD50 at 336 h [1] | ILS at 6.25 mg/kg/day (L1210 leukemia) | further results
1 | O=c1[nH]cc(F)c(=O)[nH]1 [5-fluorouracil] |  |  |  |  |  |  |  |  | Increase in life span (% ILS) (B16 melanoma; 25 mg/kg): 0%; Mean survival time (MST ± SE) (B16 melanoma; 25 mg/kg): 22.0 ± 1.45; Mean survival time (MST ± SE) (B16 melanoma; 50 mg/kg): 25.0 ± 2.26; Increase in life span (% ILS) (B16 melanoma; [6]): 14%; Increase in life span (% ILS) (B16 melanoma; 100 mg/kg): -11%; Mean survival time (MST ± SE) (B16 melanoma; 100 mg/kg): 19.6 ± 0.98
2 | CCCCCCCCCCCCCCOP(=O)(O)OC[C@H]1O[C@@H](n2ccc(N)nc2=O)[C@@H](O)[C@@H]1O [C14-ara-CMP ester, ara-CMP-tetradecyl ester] | 88% | 105% | 134% | 62% |  |  |  |  | 
3 | CCCCCCCCCCCCCCCOP(=O)(O)OC[C@H]1O[C@@H](n2ccc(N)nc2=O)[C@@H](O)[C@@H]1O [C15-ara-CMP ester, ara-CMP-pentadecyl ester] | 95% | 135% |  | 70% |  |  |  |  | 
4 | CCCCCCCCCCCCCCCCOP(=O)(O)OC[C@H]1O[C@@H](n2ccc(N)nc2=O)[C@@H](O)[C@@H]1O [C16-ara-CMP ester, ara-CMP-cetyl ester] | 88% | 137% | > 227% | 73% | 19% | 30% | 2190 mg/kg |  | 
5 | CCCCCCCCCCCCCCCCCOP(=O)(O)OC[C@H]1O[C@@H](n2ccc(N)nc2=O)[C@@H](O)[C@@H]1O [C17-ara-CMP ester, ara-CMP-heptadecyl ester] | 123% | > 154% | -15% | 87% | 32% | 52% |  | 11% | 
6 | CCCCCCCC/C=C\CCCCCCCCOP(=O)(O)OC[C@H]1O[C@@H](n2ccc(N)nc2=O)[C@@H](O)[C@@H]1O [C18-1-ara-CMP ester, ara-CMP-oleyl ester] | 109% | 120% | > 159% | 81% | 39% | 54% | 3750 mg/kg | 20% | 
7 | CCCCCCCCCCCCCCCCCCOP(=O)(O)OC[C@H]1O[C@@H](n2ccc(N)nc2=O)[C@@H](O)[C@@H]1O [C18-ara-CMP ester, ara-CMP-stearyl ester] | > 200% | 53% | -7% | 114% | 52% | 69% | 1050 mg/kg | 46% | LD50 at 168 h [2]: 137 mg/kg; Mean survival time (MST ± SE) (B16 melanoma; 50 mg/kg): 30.0 ± 1.30; Increase in life span (% ILS) (B16 melanoma; [6]): 36%; Increase in life span (% ILS) (B16 melanoma; 100 mg/kg): 17%; Mean survival time (MST ± SE) (B16 melanoma; 100 mg/kg): 25.8 ± 1.98; Increase in life span (% ILS) (B16 melanoma; 200 mg/kg): 22%; Mean survival time (MST ± SE) (B16 melanoma; 200 mg/kg): 26.8 ± 2.20; Increase in life span (% ILS) (L1210 leukemic cells [3]; 250 mg/kg): 92%; Mean survival time (MST ± SE) (L1210 leukemic cells [3]; 250 mg/kg): 14.0 ± 0.53; Increase in life span (% ILS) (L1210 leukemic cells [3]; 500 mg/kg): 137%; Mean survival time (MST ± SE) (L1210 leukemic cells [3]; 500 mg/kg): 17.3 ± 0.49; LD50 at 168 h [4]: 1400 mg/kg; Increase in life span (% ILS) (L1210 leukemic cells [5]; ip, 25 mg/kg/day): 152%; Mean survival time (MST ± SE) (L1210 leukemic cells [5]; ip, 25 mg/kg/day): 17.4 ± 0.40; Increase in life span (% ILS) (L1210 leukemic cells [5]; ip, 50 mg/kg/day): 193%; Mean survival time (MST ± SE) (L1210 leukemic cells [5]; ip, 50 mg/kg/day): 20.2 ± 0.53; Increase in life span (% ILS) (L1210 leukemic cells [5]; po, 50 mg/kg/day): 165%; Mean survival time (MST ± SE) (L1210 leukemic cells [5]; po, 50 mg/kg/day): 18.3 ± 0.62; Increase in life span (% ILS) (L1210 leukemic cells [5]; po, 100 mg/kg/day): 188%; Mean survival time (MST ± SE) (L1210 leukemic cells [5]; po, 100 mg/kg/day): 19.9 ± 0.48
